Experimental data: patent US20230094922A1, “METHODS OF THERAPEUTIC PROGNOSTICATION” (GENETIKAPLUS LTD., priority 2020, published 2023)

System: iPSC-derived cortical neurons
Assay type: cell-based
Details: responders vs non-responders, 10 μM Bupropion; PValue NS

With `CC(NC(C)(C)C)C(=O)c1cccc(Cl)c1` (stereo not drawn) [Bupropion, 3-Chloro-N-tert-butyl-β-keto-α-methylphenethylamin] the “logFC HPCAL4” value was −1.489, the “logFC INSYN1” value was −1.208 and the “logFC INSYN2A” value was −1.914. For the same compound, the “logFC IQSEC3” value was −1.513, the “logFC JAKMIP3” value was −0.927 and the “logFC KIDINS220” value was −0.8542. For the same compound, the “logFC KIF1A” value was −1.165, the “logFC KIF21B” value was −1.336 and the “logFC KLF7” value was −0.8775. The “logFC L1CAM” value was −1.21, the “logFC LANCL2” value was −0.7582 and the “logFC LBH” value was −0.8003. For the same compound, the “logFC MACO1” value was −0.6324, the “logFC MADD” value was −0.7392 and the “logFC MAGEE1” value was −0.8404. The “logFC MANEAL” value was −1.302, the “logFC MAOA” value was −1.531 and the “logFC MAP3K10” value was −0.7965. The “logFC MAPK8IP1” value was −1.32, the “logFC MAPT” value was −1.894 and the “logFC MCF2L” value was −1.13. The “logFC MDGA1” value was −1.126, the “logFC MLLT11” value was −1.039 and the “logFC MSANTD1” value was −1.341. For the same compound, the “logFC MTMR4” value was −0.6785, the “logFC MVB12B” value was −1.106 and the “logFC MYH3” value was −3.064. The “logFC MYH6” value was −3.72, the “logFC MYT1” value was −1.297 and the “logFC MYT1L” value was −2.032. The “logFC NAPB” value was −1.05, the “logFC NCAN” value was −1.327 and the “logFC NCS1” value was −1.056. The “logFC NDP” value was −2.196, the “logFC NEFL” value was −0.8556 and the “logFC NKAIN2” value was −1.212. The “logFC NOL4L” value was −0.7376, the “logFC NRN1” value was −0.9586 and the “logFC NRXN2” value was −1.352. The “logFC NTRK1” value was −1.53, the “logFC NTS” value was −1.335 and the “logFC NXPH1” value was −2.191. The “logFC OLFM1” value was −1.154, the “logFC OSBP2” value was −1.125 and the “logFC PCDHA5” value was −1.076. The “logFC PCDHA7” value was −1.111, the “logFC PCDHB13” value was −1.168 and the “logFC PCDHB15” value was −1.085. For the same compound, the “logFC PCDHGA4” value was −1.156, the “logFC PCDHGA6” value was −1.871 and the “logFC PCSK2” value was −1.936. The “logFC PEG3” value was −3.912, the “logFC PEX5L” value was −1.625 and the “logFC PHACTR1” value was −1.247. The “logFC PIP4K2B” value was −0.6164, the “logFC PLCL1” value was −1.271 and the “logFC PLPPR4” value was −2.082. For the same compound, the “logFC PLPPR5” value was −1.467, the “logFC PLXNA4” value was −1.432 and the “logFC PNMA6A” value was −1.328. For the same compound, the “logFC PODXL2” value was −0.8136, the “logFC PRKAR1B” value was −1.374 and the “logFC PTGFR” value was −2.027. The “logFC PTPRT” value was −1.789, the “logFC QPCT” value was −1.04 and the “logFC RALYL” value was −2.285. For the same compound, the “logFC RGN” value was −1.436, the “logFC RIMS3” value was −1.119 and the “logFC ROBO2” value was −1.394. For the same compound, the “logFC RPS6KL1” value was −1.019, the “logFC RTN2” value was −0.9099 and the “logFC RTN4” value was −0.6753. The “logFC RUNDC3A” value was −1.678, the “logFC RUSC2” value was −0.9937 and the “logFC SBK1” value was −0.9487. The “logFC SCAMP5” value was −0.8113, the “logFC SCRT1” value was −1.427 and the “logFC SEPTIN4” value was −1.513. For the same compound, the “logFC SGIP1” value was −1.239, the “logFC SH3GL2” value was −1.666 and the “logFC SHC2” value was −0.6933. The “logFC SHC4” value was −2.453, the “logFC SHISA7” value was −1.011 and the “logFC SLC1A4” value was −1.383. For the same compound, the “logFC SLC4A3” value was −1.275, the “logFC SLC6A17” value was −2.434 and the “logFC SLC24A3” value was −1.458. The “logFC SLC30A10” value was −1.88, the “logFC SLIT1” value was −1.122 and the “logFC SLITRK3” value was −2.443. For the same compound, the “logFC SMIM18” value was −1.721, the “logFC SMIM22” value was −1.921 and the “logFC SNAP25” value was −1.475. The “logFC SNN” value was −0.6591, the “logFC SOBP” value was −0.9125 and the “logFC SOGA3” value was −1.2. The “logFC SOX4” value was −0.6592, the “logFC SPOCK2” value was −2.032 and the “logFC SPRN” value was −1.245. The “logFC SRL” value was −1.711, the “logFC STMN3” value was −1.145 and the “logFC SYT3” value was −1.332. The “logFC SYT4” value was −1.54, the “logFC SYT5” value was −1.94 and the “logFC SYT11” value was −0.7686. For the same compound, the “logFC TACR1” value was −1.666, the “logFC TAFA2” value was −1.304 and the “logFC TBC1D30” value was −1.541. For the same compound, the “logFC TCEAL6” value was −2.546, the “logFC TMCC2” value was −0.92 and the “logFC TMEM35A” value was −1.274. For the same compound, the “logFC TMEM179” value was −1.494, the “logFC TMEM229B” value was −1.955 and the “logFC TMOD2” value was −1.477. The “logFC TNR” value was −2.583, the “logFC TRIM67” value was −1.894 and the “logFC UBE2QL1” value was −1.575. The “logFC UNC13A” value was −0.9018, the “logFC VAMP2” value was −0.7327 and the “logFC VSTM2L” value was −1.008. The “logFC VWC2” value was −2.201, the “logFC XKR4” value was −1.301 and the “logFC XKR7” value was −1.252. For the same compound, the “logFC ZNF436” value was −0.8527 and the “logFC ZNF836” value was −0.9494.
